Laboratory results reported in patent EP0394868A1, “New antibiotics NK372135, process for the production thereof and use thereof” (Nippon Kayaku Kabushiki Kaisha, priority 1989, dated 1990).
≈ marks a conversion by molar mass, not a printed value.

Key:
Format in all cases: cell-based
[1] = target: T1, 5-lipoxygenase (Cavia porcellus, UniProt A0A286X958); assay: 5-lipoxygenase inhibitory activity in ionophore-stimulated peritoneal cells (5-HETE by HPLC); conditions: Guinea pig peritoneal cells, ionophore A 23187 + arachidonic acid
T1 construct: the peritoneal cells of the animals were collected; endogenous in cells; host or cells: casein-elicited peritoneal cells of Hartley guinea pigs
T1 sequence (A0A286X958 1-674): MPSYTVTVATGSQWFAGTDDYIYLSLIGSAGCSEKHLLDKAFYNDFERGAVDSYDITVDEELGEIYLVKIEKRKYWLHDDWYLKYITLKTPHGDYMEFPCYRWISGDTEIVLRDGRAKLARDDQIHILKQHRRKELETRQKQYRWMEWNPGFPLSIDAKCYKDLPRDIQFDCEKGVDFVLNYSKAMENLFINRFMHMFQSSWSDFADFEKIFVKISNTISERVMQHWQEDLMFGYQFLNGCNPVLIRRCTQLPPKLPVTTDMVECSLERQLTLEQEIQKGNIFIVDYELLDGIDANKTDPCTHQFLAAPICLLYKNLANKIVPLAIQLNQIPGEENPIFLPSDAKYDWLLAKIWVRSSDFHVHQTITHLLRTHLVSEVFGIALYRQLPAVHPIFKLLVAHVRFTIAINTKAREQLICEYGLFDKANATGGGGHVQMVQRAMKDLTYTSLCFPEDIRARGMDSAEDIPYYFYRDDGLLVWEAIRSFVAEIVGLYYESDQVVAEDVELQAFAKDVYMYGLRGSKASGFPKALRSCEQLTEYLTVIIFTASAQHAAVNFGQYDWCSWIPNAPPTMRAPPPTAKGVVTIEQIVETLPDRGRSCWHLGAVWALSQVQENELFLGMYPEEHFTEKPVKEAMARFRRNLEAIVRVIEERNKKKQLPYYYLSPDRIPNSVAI
Description: The 5-lipoxygenase inhibitory activities of the compounds of the present invention were examined.
The 5-lipoxygenase inhibitory activity was evaluated from the inhibitory activity on ionophore stimulation on Guinea pig peritoneal cells in the following manner.
A 2% casein solution was intraperitoneally administered to Hartley Guinea pigs weighing 250 to 350 g. 18 hours after the administration, the peritoneal cells of the animals were collected. The contaminating erythrocytes were hemolyzed and centrifuged. To the cell fraction thus obtained was added a 50 mM phosphate buffer solution (pH 7.0) containing […] of indomethacin and the concentration of the peritoneal cells was adjusted to 1 x 10⁷ cell/-ml. To 1.0 ml of the cell suspension thus obtained, a test compound of various concentrations was added so as to give a final concentration of 100 µM. Then the mixture was incubated at 37°C for five minutes. Next, 1.0 µg of lonophore A 23187 and 10 µg of arachidonic acid were added thereto and the reaction was initiated. After 20 minutes, the reaction was ceased by adding 4 ml of ethanol. The reaction supernatant was analyzed by HPLC in accordance with the method of Amano et al. [Vitamin, 59, 211 - 219 (1985)] so as to detect 5-hydroxyeicosatetraenoic acid (5-HETE) which was a metabolite derived from arachidonic acid.

[2] = test system: Escherichia coli; assay: Antimicrobial spectrum, paper disc agar diffusion; conditions: 8 mm paper disc, 100 µg/ml solution, 37°C for a day and night, read-out: Diameter of inhibition zone (mm)
Description: (§1) The antimicrobial spectra of the compounds of the present invention were examined.
(§2) Table 1 gives the antimicrobial spectra of NK372135A, C and D. A paper disc of 8 mm in diameter was immersed in a solution containing 100 µg/ml of NK372135A, C or D and then placed on an agar medium in which a test strain had been grown. Regarding the four strains listed in the upper part of Table 1 and Candida albicans, each culture was conducted at 37°C for a day and night, while other strains were cultured at 25°C for a day and night. Then the diameter of each inhibition zone thus formed was measured. […] Since no existing antifungal agent exerts a satisfactory effect on fungi, the compounds of the present invention are highly expected as effective antifungal agents.

[3] = test system: Staphylococcus aureus; assay: Antimicrobial spectrum, paper disc agar diffusion; conditions: 8 mm paper disc, 100 µg/ml solution, 37°C for a day and night, read-out: Diameter of inhibition zone (mm)
Description: as §1, §2

[4] = test system: Botrytis fabae; assay: Antimicrobial spectrum, paper disc agar diffusion; conditions: 8 mm paper disc, 100 µg/ml solution, 25°C for a day and night, read-out: Diameter of inhibition zone (mm)
Description: as §1, §2

[5] = test system: Mycosphaerella melonis; assay: Antimicrobial spectrum, paper disc agar diffusion; conditions: 8 mm paper disc, 100 µg/ml solution, 25°C for a day and night, read-out: Diameter of inhibition zone (mm)
Description: as §1, §2

[6] = test system: Mucor japonicus; assay: Antimicrobial spectrum, paper disc agar diffusion; conditions: 8 mm paper disc, 100 µg/ml solution, 25°C for a day and night, read-out: Diameter of inhibition zone (mm)
Description: as §1, §2

[7] = test system: Aspergillus oryzae; assay: Antimicrobial spectrum, paper disc agar diffusion; conditions: 8 mm paper disc, 100 µg/ml solution, 25°C for a day and night, read-out: Diameter of inhibition zone (mm)
Description: as §1, §2

[8] = test system: Fusarium roseum; assay: Antimicrobial spectrum, paper disc agar diffusion; conditions: Fusarium sambucinum, read-out: Diameter of inhibition zone (mm)
Description: as §1, §2

[9] = test system: Mycobacterium smegmatis; assay: Antimicrobial spectrum, paper disc agar diffusion; conditions: Mycolicibacterium smegmatis, 8 mm paper disc, 100 µg/ml solution, 37°C for a day and night, read-out: Diameter of inhibition zone (mm)
Description: as §1, §2

[10] = test system: Bacillus subtilis; assay: Antimicrobial spectrum, paper disc agar diffusion; conditions: 8 mm paper disc, 100 µg/ml solution, 37°C for a day and night, read-out: Diameter of inhibition zone (mm)
Description: as §1, §2

[11] = test system: Candida albicans; assay: Antimicrobial spectrum, paper disc agar diffusion; conditions: 8 mm paper disc, 100 µg/ml solution, 37°C for a day and night, read-out: Diameter of inhibition zone (mm)
Description: as §1, §2

[12] = test system: Saccharomyces cerevisiae; assay: Antimicrobial spectrum, paper disc agar diffusion; conditions: 8 mm paper disc, 100 µg/ml solution, 25°C for a day and night, read-out: Diameter of inhibition zone (mm)
Description: as §1, §2

[13] = test system: Trichophyton mentagrophytes; assay: Antimicrobial spectrum, paper disc agar diffusion; conditions: 8 mm paper disc, 100 µg/ml solution, 25°C for a day and night, read-out: Diameter of inhibition zone (mm)
Description: as §1, §2

[14] = test system: SW1116; assay: Cytotoxicity, growth inhibition by methylene blue method; conditions: Homo sapiens, SW 1116, 96 h, RPMI 1640, 10% fetal calf serum, two to four days with compound, read-out: Cytotoxicity IC₅₀
Description: (§3) The cytotoxicities of NK372135A, B and C and methoxy-xanthocillin monomethyl ether (XTM) which is an analog thereof were examined. 2,000 cells of each of G361, SW1116, PC-3 and Li-7 cell strains were inoculated into a 96-well plate and incubated at 37°C under 5% CO₂ for 24 hours. An RPMI 1640 medium containing 10% of fetal calf serum was employed as a medium. After incubating for 24 hours, a test compound of a given concentration was added thereto and the incubation was further conducted for two to four days. Subsequently, the cells were counted by the methylene blue method so as to evaluate the extent of the growth inhibition.

[15] = test system: Li-7; assay: as above; conditions: RPMI 1640, 10% fetal calf serum, two to four days with compound; for IC50: 96 h, read-out: Cytotoxicity IC₅₀
Description: as §3

[16] = test system: PC-3; assay: as above; conditions: Homo sapiens, 96 h, RPMI 1640, 10% fetal calf serum, two to four days with compound, read-out: Cytotoxicity IC₅₀
Description: as §3

[17] = test system: G361; assay: as above; conditions: Homo sapiens, G-361, 96 h, RPMI 1640, 10% fetal calf serum, two to four days with compound, read-out: Cytotoxicity IC₅₀
Description: as §3

[18] = test system: Candida albicans; assay: Anti-Candida activity, growth in bouillon medium (absorbance at 595 nm); conditions: Candida albicans 2 x 10³ cell/well, 30°C for 16 hours
Description: The anti-Candida activity of NK372135B was compared with that of methoxy-xanthocillin X dimethyl ether which is shown in The Journal of Antibiotics Vol 34 (1981) No. 12, P1556 ∼ 1561.
Candida albicans was inoculated into a 96-well plate at a density of 2 x 10³ cell/well with the use of 0.2 cc of a bouillon medium. Then a test compound of various concentrations was added thereto and the microorganism was incubated at 30°C for 16 hours. Then the absorbance of each well at 595 nm was measured and IC₅₀ was calculated from the dose response curve. […] Thus it was found out that the saturation of the double bond in methoxy-xanthocillin X dimethyl ether enhanced the anti-Candida activity.

[C-]#[N+]C(=Cc1ccc(OC)cc1)C(Cc1ccc(OC)cc1)[N+]#[C-] (centres unmarked) [NK372135A]
Inhibition ratio (%) ([1]; 10⁻⁴ mol/ℓ): 37.1% | Inhibition ratio (%) ([1]; 10⁻⁵ mol/ℓ): 5.0% | Inhibition ratio (%) ([1]; 10⁻⁶ mol/ℓ): 0% | zone of inhibition at 100 µg/mL [2]: 20 mm | zone of inhibition at 100 µg/mL [3]: 20.5 mm | zone of inhibition at 100 µg/mL [4]: 25 mm | zone of inhibition at 100 µg/mL [5]: 18 mm | zone of inhibition at 100 µg/mL [6]: 15 mm | zone of inhibition at 100 µg/mL [7]: 20 mm | zone of inhibition at 100 µg/mL [8]: 9 mm | zone of inhibition at 100 µg/mL [9]: 21 mm | zone of inhibition at 100 µg/mL [10]: 21.5 mm | zone of inhibition at 100 µg/mL [11]: 30 mm | zone of inhibition at 100 µg/mL [12]: 25 mm | zone of inhibition at 100 µg/mL [13]: 30 mm | IC50 [14]: 1.65 µg/mL (≈ 5.18 µM) | IC50 [15]: 1.45 µg/mL (≈ 4.55 µM) | IC50 [16]: 1.05 µg/mL (≈ 3.3 µM) | IC50 [17]: 2.13 µg/mL (≈ 6.69 µM)

[C-]#[N+]C(=Cc1ccc(OC)c(OC)c1)C(Cc1ccc(OC)cc1)[N+]#[C-] (centres unmarked) [NK372135B]
Inhibition ratio (%) ([1]; 10⁻⁴ mol/ℓ): 33.3% | Inhibition ratio (%) ([1]; 10⁻⁵ mol/ℓ): 5.0% | Inhibition ratio (%) ([1]; 10⁻⁶ mol/ℓ): 0% | IC50 [14]: 2.55 µg/mL (≈ 7.32 µM) | IC50 [15]: 1.8 µg/mL (≈ 5.17 µM) | IC50 [16]: 0.76 µg/mL (≈ 2.18 µM) | IC50 [17]: 2.4 µg/mL (≈ 6.89 µM) | IC50 ([18]; read-out: IC₅₀): 1.5 µg/mL (≈ 4.31 µM)

[C-]#[N+]C(=Cc1ccc(OC)c(O)c1)C(Cc1ccc(OC)cc1)[N+]#[C-] (centres unmarked) [NK372135C]
Inhibition ratio (%) ([1]; 10⁻⁴ mol/ℓ): 100% | Inhibition ratio (%) ([1]; 10⁻⁵ mol/ℓ): 25.5% | Inhibition ratio (%) ([1]; 10⁻⁶ mol/ℓ): 12.9% | zone of inhibition at 100 µg/mL [2]: 29 mm | zone of inhibition at 100 µg/mL [3]: 26 mm | zone of inhibition at 100 µg/mL [4]: 25 mm | zone of inhibition at 100 µg/mL [5]: 19 mm | zone of inhibition at 100 µg/mL [6]: 17 mm | zone of inhibition at 100 µg/mL [7]: 21 mm | zone of inhibition at 100 µg/mL [8]: 12 mm | zone of inhibition at 100 µg/mL [10]: 28 mm | zone of inhibition at 100 µg/mL [11]: 25 mm | zone of inhibition at 100 µg/mL [12]: 25 mm | zone of inhibition at 100 µg/mL [13]: 30 mm | IC50 [14]: 5.89 µg/mL (≈ 17.6 µM) | IC50 [15]: 1.7 µg/mL (≈ 5.08 µM) | IC50 [16]: 1.23 µg/mL (≈ 3.68 µM) | IC50 [17]: 2.52 µg/mL (≈ 7.54 µM)

[C-]#[N+]C(=C\c1ccc(OC)cc1)/C(=C/c1ccc(OC)c(OC)c1)[N+]#[C-] [methoxy-xanthocillin X dimethyl ether, reference compound]
IC₅₀ [18]: 9.0 µg/mL

methoxy-xanthocillin monomethyl ether [XTM, reference compound]
Cytotoxicity IC₅₀ [15]: 0.57 µg/mL
